Data taken from ChEMBL document CHEMBL1141235, “Synthesis and preliminary evaluation of [3H]PSB-0413, a selective antagonist radioligand for platelet P2Y12 receptors” (Bioorg Med Chem Lett, 2005).

Target: P2Y purinoceptor 12 (Homo sapiens, UniProt Q9H244)
Test: Binding affinity to P2Y12 receptor expressed in human platelets from 0.047 to 50 nM

Chain of P2Y purinoceptor 12 (Q9H244 whole entry): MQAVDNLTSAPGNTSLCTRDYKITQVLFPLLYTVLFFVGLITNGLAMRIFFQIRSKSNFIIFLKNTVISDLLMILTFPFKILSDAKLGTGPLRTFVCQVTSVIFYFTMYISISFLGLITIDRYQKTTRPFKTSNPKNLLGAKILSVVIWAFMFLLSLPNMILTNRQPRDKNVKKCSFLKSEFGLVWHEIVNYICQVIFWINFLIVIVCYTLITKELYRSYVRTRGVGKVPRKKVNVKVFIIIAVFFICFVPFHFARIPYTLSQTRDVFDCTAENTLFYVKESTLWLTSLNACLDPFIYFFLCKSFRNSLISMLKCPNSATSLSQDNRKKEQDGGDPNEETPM

[3H]C([3H])([3H])C([3H])([3H])CSc1nc(N)c2ncn([C@@H]3O[C@H](COP(=O)(O)OP(=O)(O)C(Cl)(Cl)P(=O)(O)O)[C@@H](O)[C@H]3O)c2n1
Kd: 4.57 nM
